Experimental findings from ChEMBL document CHEMBL1156452, “Minocycline down-regulates MHC II expression in microglia and macrophages through inhibition of IRF-1 and protein kinase C (PKC)alpha/betaII” (J Biol Chem, 2007) are described below.

Assay [1] concerns Macrophage. Nature of the assay: Inhibition of MHC2 expression in Sprague-Dawley rat peritoneal macrophages at 1.3 uM after 24 hrs by immunostaining. Type of assay: functional, cell-based.
For assay [2], the species on record is Rattus norvegicus. Nature of the assay: Suppression of IFN-gamma-induced PKCalpha/beta2 nuclear translocation in Sprague-Dawley rat primary microglial cells at 1.3 uM by Western blotting. A general note: In western blotting, separated proteins are transferred to a membrane and probed.
Assay [3] deals with T1, Interferon regulatory factor 1 (Rattus norvegicus) (UniProt P23570).
T1 sequence (whole entry): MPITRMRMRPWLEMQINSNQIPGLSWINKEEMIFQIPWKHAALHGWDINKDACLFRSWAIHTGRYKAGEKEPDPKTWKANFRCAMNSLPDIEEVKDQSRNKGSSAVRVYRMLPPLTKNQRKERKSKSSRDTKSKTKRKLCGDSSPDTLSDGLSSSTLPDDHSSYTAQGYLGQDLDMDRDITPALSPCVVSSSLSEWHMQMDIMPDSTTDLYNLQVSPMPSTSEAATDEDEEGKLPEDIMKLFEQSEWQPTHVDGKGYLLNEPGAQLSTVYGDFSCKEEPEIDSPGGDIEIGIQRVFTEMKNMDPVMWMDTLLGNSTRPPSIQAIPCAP
Nature of the assay: Suppression of IFN-gamma-induced IFN-gamma regulatory factor 1 nuclear translocation in Sprague-Dawley rat primary microglial cells at 1.3 uM by Western blotting.

Assay [4] can be described thus: Decrease in IFN-gamma-induced MHC2 expression in Sprague-Dawley rat primary microglial cells at 1.3 uM. Particulars: Microglia. Details: scale not given: the % may be the effect or the level left. Type of assay: cell-based.
Assay [5] concerns the target Protein kinase C beta type (Homo sapiens, UniProt P05771). Description: Inhibition of PKCbeta1.
The target of assay [6] is Protein kinase C alpha type (Homo sapiens, UniProt P17252). Description: Inhibition of PKCalpha.
For assay [7], the system named is Microglia. Nature of the assay: Inhibition of IFN-gamma-induced IFN-gamma regulatory factor levels in Sprague-Dawley rat primary microglial cells by Western blotting. Type of assay: functional, cell-based.
Assay [8] can be described thus: Decrease in IFN-gamma-induced MHC2 protein levels in Sprague-Dawley rat primary microglial cells at 1.3 uM by Western blotting. Type of assay: functional, Microglia. The arrangement: scale not given: the % may be the effect or the level left.
Assay [9] is described as follows: Decrease in IFN-gamma-induced MHC2 expression in Sprague-Dawley rat primary microglial cells at 100 uM. Particulars: Microglia. Type of assay: functional, cell-based. Details: scale not given: the % may be the effect or the level left.
Assay [10] concerns the target Protein kinase C alpha type (Rattus norvegicus) (UniProt P05696). Nature of the assay: Decrease in PKCalpha phosphorylation in Sprague-Dawley rat peritoneal macrophages at 100 uM after 24 hrs.
For assay [11], the system named is Rattus norvegicus. Description: Decrease in accumulation of MHC 2+ cells in spinal cord of dark agouti rat experimental allergic encephalomyelitis model at 45 mg/kg, ip administered twice a day at the first day of clinical signs and once a day for 14 days by immunostaining. Type of assay: functional. Details: scale not given: the % may be the effect or the level left. To be noted: route intraperitoneal.

Assay [12] relates to Rattus norvegicus. Description: Decrease in size of MOG-induced inflammatory lesions in spinal cord of dark agouti rat experimental allergic encephalomyelitis model at 45 mg/kg, ip administered twice a day at the first day of clinical signs and once a day for 14 days by hematoxylin and eosin staining. Type of assay: functional, organism-based. The arrangement: dose 45 mg/kg.

Assay [13] relates to Rattus norvegicus. Nature of the assay: Decrease in accumulation of CD11b+ cells in spinal cord of dark agouti rat experimental allergic encephalomyelitis model at 45 mg/kg, ip administered twice a day at the first day of clinical signs and once a day for 14 days by immunostaining. Type of assay: functional. Details: scale not given: the % may be the effect or the level left. To be noted: route intraperitoneal.

Assay [14] can be described thus: Decrease in IFN-gamma-induced CIITA mRNA expression in Sprague-Dawley rat primary microglial cells at 100 uM after 24 hrs by RT-PCR. Type of assay: functional, cell-based. To be noted: Microglia.
The nature of assay [15]: Decrease in IFN-gamma-induced MHC2 mRNA levels in Sprague-Dawley rat primary microglial cells at 100 uM after 24 hrs by RT-PCR. Type of assay: functional, Microglia. Details: scale not given: the % may be the effect or the level left.
The test system of assay [16] is Macrophage. Nature of the assay: Inhibition of MHC2 expression in Sprague-Dawley rat peritoneal macrophages at 100 uM after 24 hrs by immunostaining. Type of assay: functional, cell-based.
Assay [17] can be described thus: Decrease in IFN-gamma-induced MHC2 protein levels in Sprague-Dawley rat primary microglial cells at 100 uM by Western blotting. Type of assay: functional, Microglia. Details: scale not given: the % may be the effect or the level left.
For assay [18], the system named is Rattus norvegicus. Nature of the assay: Decrease in number of MOG-induced inflammatory lesions in spinal cord of dark agouti rat experimental allergic encephalomyelitis model at 45 mg/kg, ip administered twice a day at the first day of clinical signs and once a day for 14 days by hematoxylin and eosin staining. Type of assay: functional, organism-based. The arrangement: dose 45 mg/kg.

The species named for assay [19] is Rattus norvegicus. Nature of the assay: Suppression of IFN-gamma-induced PKCalpha/beta2 nuclear translocation in Sprague-Dawley rat primary microglial cells at 100 uM by Western blotting.
Assay [20] is filed under the species Rattus norvegicus. Nature of the assay: Reduction in IFN-gamma-induced PKCalpha/beta2 phosphorylation in Sprague-Dawley rat primary microglial cells at 100 uM by Western blotting.
The target in assay [21] is T1, Interferon regulatory factor 1 (Rattus norvegicus). Description: Suppression of IFN-gamma-induced IFN-gamma regulatory factor 1 nuclear translocation in Sprague-Dawley rat primary microglial cells at 100 uM by Western blotting.

Active and inactive are the calls of the source. No cut-off for these calls is given here.

Protein kinase C beta type, sequence (P05771 whole entry): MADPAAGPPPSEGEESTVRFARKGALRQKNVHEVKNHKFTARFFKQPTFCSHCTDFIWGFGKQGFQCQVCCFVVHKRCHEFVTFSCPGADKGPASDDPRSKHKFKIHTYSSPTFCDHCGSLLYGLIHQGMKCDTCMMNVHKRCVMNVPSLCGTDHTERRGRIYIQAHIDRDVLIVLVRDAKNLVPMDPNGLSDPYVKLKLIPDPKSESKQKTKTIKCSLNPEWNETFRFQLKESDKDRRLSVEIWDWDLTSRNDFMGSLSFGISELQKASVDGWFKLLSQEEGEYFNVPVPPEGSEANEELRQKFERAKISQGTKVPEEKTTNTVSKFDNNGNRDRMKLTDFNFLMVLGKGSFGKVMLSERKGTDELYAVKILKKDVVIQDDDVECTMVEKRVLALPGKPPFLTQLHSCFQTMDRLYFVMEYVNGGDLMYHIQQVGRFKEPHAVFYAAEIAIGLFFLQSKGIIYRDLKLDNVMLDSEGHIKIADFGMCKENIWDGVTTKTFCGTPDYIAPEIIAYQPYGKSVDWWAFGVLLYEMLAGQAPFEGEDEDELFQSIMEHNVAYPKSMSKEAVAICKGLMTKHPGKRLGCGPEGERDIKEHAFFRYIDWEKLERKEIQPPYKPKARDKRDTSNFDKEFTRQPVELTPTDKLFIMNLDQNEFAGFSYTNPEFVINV

As a reminder, the IC50 is the concentration that gives 50% inhibition. For `Cn1c2ccccc2c2c3c(c4c5ccccc5n(CCC#N)c4c21)CNC3=O` [GO-6976], the outcome in assay [1], in assay [2], in [3] and in assay [7] was Active. Moreover, the values for the Activity in assay [4] and in assay [8] were 55% and 80%, respectively. In addition, the IC50 was determined as 6.2 nM in [5] and 2.3 nM in assay [6].

As to `CN(C)c1ccc(O)c2c1C[C@H]1C[C@H]3[C@H](N(C)C)C(O)=C(C(N)=O)C(=O)[C@@]3(O)C(O)=C1C2=O` [MINOCYCLINE], the Activity was determined as 55% in assay [9]; 42% in assay [11]; 24% in assay [13]; 45% in assay [15]; 47% in assay [17]. Further, the result in [10], in assay [12], in assay [14], in [16], in assay [18] and in assay [19] was Active. Also, the result in [20] and in assay [21] was Active.
